Entries after “also recorded” stand apart in the source; their conditions may differ. Like-named read-outs stand apart in the source and are kept apart here.
Columns and labels:
[1] = test system: SH-SY5Y human neuroblastoma cells; experiment: Neuroprotection against H2O2-induced toxicity, MTT cell viability assay; assay type: cell-based; details: 50 μM compound, 100 μM H2O2, 24 h, 37 °C
Description: Neuroprotective activity assays against H2O2-induced toxicity. On the basis of previously described protocols, the flavones and analogues herein synthesized were screened for their neuroprotective effects against H2O2-induced oxidative stress and neuronal damage in SH-SY5Y human neuroblastoma cells by means of a thiazolyl blue tetrazolium bromide (MTT) reduction-based cell viability assay.
Neuroprotective assays in human neuroblastoma (SH-SY5Y) cells. […] Differences were considered significant when P < 0.05.

[2] = test system: SH-SY5Y neuroblastoma cells; experiment: Cytotoxic activity of compounds alone, MTT cell viability assay; details: 24 h
Experimental: Neuroprotective assays in human neuroblastoma (SH-SY5Y) cells. SH-SY5Y cells were grown in Dulbecco’s Modified Eagle Medium (DMEM, Gibco, Life Technologies) supplemented with 10% fetal bovine serum (FBS, Biochrom GmbH) and 1% Penicillin-Streptomycin (Gibco, Life Technologies) in a humidified incubator at 37 °C, 5% CO2. For the neuroprotective activity assay, undifferentiated SGSY-5Y cells were plated onto 96-well flat-bottomed microtiter plates at a density of 1 × 10^4 cells/well in DMEM supplemented with 2% FBS and preincubated for 24 h at 37 °C, 5% CO2. Compounds (stored as 10 mM solutions in DMSO at −20 °C) were then added to achieve a final concentration of 50 μM and, after 30 min, cells were incubated in the presence or absence of 20 μM Aβ protein fragment 1-42 (Sigma-Aldrich, dissolved in DMSO and stored in 2 mM aliquots at −20 °C) or 100 μM of H2O2 (Sigma-Aldrich, dissolved to 10 mM in 0.9% NaCl aqueous solution immediately prior to the assay) overnight at 37 °C, 5% CO2. […] The following morning, 20 μL of a 5 mg/mL solution of 3-(4,5-dimethylthiazol-2-yl)-2,5-diphenyltetrazolium bromide (MTT, Sigma-Aldrich) in PBS (Gibco, Life Technologies) was added to each well and the plates were further incubated for 4 h at 37 °C, followed by the addition of DMSO (200 μL) to each well in order to dissolve the resulting formazan crystals. After 2 h incubating at 37 °C, the optical density (OD) at 540 nm (with a 620 nm reference filter) was measured in an Amersham Biosciences Biotrak II Plate Reader. The percentage of MTT reduction was determined according to Equation (1). […] Differences between experimental conditions were compared for statistical significance by one-way ANOVA followed by a Tukey’s post-test, an analysis carried out using GraphPad Prism Software (LA Jolla, CA, USA). Differences were considered significant when P < 0.05. In order to exclude direct MTT reduction, compounds were also tested in (a) the absence of cells and (b) in the absence of both cells and culture medium, using the same experimental conditions described above. (2) MTT Reduction (% of Control)=[ODsample−ODmedium/ODcell control−ODmedium] × 100 […]
Tabl e S2. Cytotoxic activity of each compound assessed in SH-SY5Y neuroblastoma cells via an MTT cell viability assay.a Comp ound Nr. MTT reduction (% control) p-va l u e vs . untreated cell control (unpai red t-t es t) […]
a Cells were incubated for 24 h at 37 °C, in the presence (50 μM) or absence of each compound.

[3] = LogD7.4 determination (octan-1-ol/phosphate buffer, LC-MS); assay type: physicochemical
Experimental: LogD7.4 determination. The in-silico prediction tool ALOGPS [4] was used to estimate the octanol-water partition coefficients (log P) of the compounds. […] For each category, two different ratios (volume of octan-1-ol to volume of buffer) were defined as experimental parameters (Table 2).
Equal amounts of phosphate buffer (0.1 M, pH 7.4) and octan-1-ol were mixed and shaken vigorously for 5 min to saturate the phases. The mixture was left until separation of the two phases, and the buffer was retrieved. Stock solutions of the test compounds were diluted with buffer to a concentration of 1 μM. For each compound, three determinations per octan-1-ol:buffer ratio were performed in different wells of a 96-well plate. The respective volumes of buffer-containing analyte (1 μM) were pipetted to the wells and covered by saturated octan-1-ol according to the chosen volume ratio. […] The aqueous phase was transferred to a 96-well plate for analysis by liquid chromatography-mass spectrometry (LCMS, see below).
Results are presented as the mean ± SD of three independent experiments.
LC-MS measurements. […] The system was controlled with the Agilent MassHunter Workstation Data Acquisition software (version B.01.04). The column used was an AtlantisR T3 C18 column (2.1 × 50 mm) with a 3 μm-particle size (Waters Corp., Milford, MA, USA). The mobile phase consisted of eluent A: 10 mM ammonium acetate, pH 5.0 in 95:5, H2O:MeCN; and eluent B: MeCN containing 0.1% formic acid. The flow rate was maintained at 0.6 mL/min. […] MS parameters such as fragmentor voltage, collision energy, and polarity were optimized individually for each drug, and the molecular ion was followed for each compound in the multiple reaction monitoring mode. The concentrations of the analytes were quantified by the Agilent Mass Hunter Quantitative Analysis software (version B.01.04).

[4] = biological target: T1, butyrylcholinesterase (BuChE) (Equus caballus, UniProt P81908); experiment: biochemical; details: for inhibition at 100 µM: read-out: BuChE inhibitory efficacy (percentage of inhibition)
T1 construct: (BuChE, equine serum); from tissue; host or cells: equine serum
T1 sequence (P81908 whole entry): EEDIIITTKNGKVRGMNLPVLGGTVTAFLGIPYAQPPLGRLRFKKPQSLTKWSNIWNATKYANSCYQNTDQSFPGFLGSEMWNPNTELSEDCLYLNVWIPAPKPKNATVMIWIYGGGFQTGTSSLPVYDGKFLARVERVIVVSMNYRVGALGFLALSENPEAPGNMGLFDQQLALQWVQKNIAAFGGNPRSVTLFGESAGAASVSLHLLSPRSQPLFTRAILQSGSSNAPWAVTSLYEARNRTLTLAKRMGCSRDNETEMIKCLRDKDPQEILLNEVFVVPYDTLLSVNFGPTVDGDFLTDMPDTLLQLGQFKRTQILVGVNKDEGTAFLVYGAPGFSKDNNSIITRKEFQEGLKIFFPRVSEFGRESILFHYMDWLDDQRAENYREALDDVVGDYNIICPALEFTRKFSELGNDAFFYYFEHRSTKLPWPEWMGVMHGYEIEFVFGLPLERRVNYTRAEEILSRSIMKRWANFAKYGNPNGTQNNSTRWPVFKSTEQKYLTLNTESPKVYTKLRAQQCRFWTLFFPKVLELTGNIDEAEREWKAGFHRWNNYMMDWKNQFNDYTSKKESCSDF
Experimental: Experimental procedures for cholinesterase inhibition a s sa y s. For cholinesterase inhibition tests (acetylcholinesterase (AChE, electrophorus
el ec t r ic u s) a n d b ut yr ylcholinesterase (BuChE, equine serum), the Ellman’s cholorimetric assay1 was followed, with minor modifications. DMSO
was kept within 1.25% cuvette concentration. The chromogenic agent DTNB [5,5’-dithiobis(2-nitrobenzoic acid)] was fixed at 0.975 mM
con centration; 0. 1 M phosphate buffer (pH 8. 0) was employed, T = 25 °C, and the reaction was monitored for 125 s. […]
of inhibition, the substrate concentration (acetylthiocholine iodide for AChE; S- butyr ylthiocholine iodide for BuChE) was fixed at 29 µM for
AChE and at 18.2 µM concentration for BuChE.
Lineweaver-Burk plot (or double reciprocal plot, 1/V vs . 1/ [S ]) wa s u se d for estimating both, the mode of inhibition and the inhibition constants […]
Competitive inhibition (inhibitor only bonds the free enzyme):
KKiiii = [II ]KKMM iiaaaa
M i xe d inhibition (inhibitor binds both, the free and the complexed enzyme) :
Uncompetitive (the inhibitors only binds the complexed enzyme):
N on -competitive (inhibitor binds both the free enzyme and the complexed enzyme with equal affinity) :
Table S3. […]
of the synthesized flavone analogues at 100 µ M.
C omp ou n d N o. AChE B uChE

[5] = biological target: acetylcholinesterase (AChE) (Electrophorus electricus, UniProt O42275); experiment: Acetylcholinesterase inhibition, Ellman's colorimetric assay; assay type: biochemical; details: 100 µM compound; for inhibition at 100 µM: read-out: AChE inhibitory efficacy (percentage of inhibition)
acetylcholinesterase (AChE), sequence (O42275 24-633): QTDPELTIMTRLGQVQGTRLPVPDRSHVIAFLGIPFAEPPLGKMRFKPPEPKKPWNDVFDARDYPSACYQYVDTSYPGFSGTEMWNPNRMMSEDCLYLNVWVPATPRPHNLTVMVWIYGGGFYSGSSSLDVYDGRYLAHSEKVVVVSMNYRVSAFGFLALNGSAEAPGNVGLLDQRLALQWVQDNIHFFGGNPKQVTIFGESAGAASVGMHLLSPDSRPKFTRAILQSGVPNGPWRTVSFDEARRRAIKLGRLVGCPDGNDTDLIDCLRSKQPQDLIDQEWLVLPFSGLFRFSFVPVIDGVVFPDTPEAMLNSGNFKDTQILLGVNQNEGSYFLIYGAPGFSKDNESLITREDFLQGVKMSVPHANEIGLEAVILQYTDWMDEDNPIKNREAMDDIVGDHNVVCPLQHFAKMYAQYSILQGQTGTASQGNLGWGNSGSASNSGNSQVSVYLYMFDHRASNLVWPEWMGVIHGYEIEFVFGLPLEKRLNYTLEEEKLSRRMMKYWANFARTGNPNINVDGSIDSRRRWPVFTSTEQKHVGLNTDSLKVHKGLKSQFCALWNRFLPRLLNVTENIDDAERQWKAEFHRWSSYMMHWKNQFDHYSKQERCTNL
Experimental: For cholinesterase inhibition tests (acetylcholinesterase (AChE, electrophorus
was kept within 1.25% cuvette concentration.
AChE and at 18.2 µM concentration for BuChE. […]

[6] = 50 μM compound alone, 37 °C, 0.5% DMSO, SH-SY5Y
[7] = octan-1-ol/phosphate buffer pH 7.4, 25 °C
[8] = octan-1-ol/phosphate buffer, pH 7.4, octan-1-ol/phosphate buffer pH 7.4, 25 °C, read-out: Log D7.4 (partition coefficient at pH 7.4)

| Compound | Neuroprotective effect against H2O2-induced toxicity (MTT cell viability) [1] | MTT reduction (% control) [2, 6] | inhibition at 100 µM [4] | logD [3, 8] | other results |
| --- | --- | --- | --- | --- | --- |
| 2-(Furan-2-yl)-8-(β-D-glucopyranosyl)-5,7-dihydroxy-4H-chromen-4-one [Compound 21] | able to rescue cells from oxidative damage caused by H2O2; also recorded: able to produce a significant improvement in cell viability | 131.5 ± 11.0% | – | – | Log D7.4 (partition coefficient at pH 7.4) [3, 7]: −0.2 ± 0.1 |
| 8-(β-D-Glucopyranosyl)-5,7-dihydroxy-4′-(pyrrolidin-1-yl)flavone [Compound 20] | – | 219.9 ± 16.9% | – | – | Log D7.4 (partition coefficient at pH 7.4) [3, 7]: 1.8 ± 0.2 |
| O=c1cc(-c2ccccc2)oc2cc(O)cc(O)c12 [Compound 1, chrysin, reference compound] | absence of significant effects | 96.2 ± 26.9% | 64% | – | Ki [4]: 32 ± 4 µM; Butyrylcholinesterase inhibition, ranking in words ([4]; 100 µM compound): the most active butyrylcholinesterase inhibitor; Mode of inhibition ([4]; BuChE, Lineweaver-Burk plot): Non-* co mp etit iv e in hi bit io n; inhibition at 100 µM [5]: 18%; logD ([3]; octan-1-ol/phosphate buffer pH 7.4, 25 °C, read-out: Log D7.4 (partition coefficient at pH 7.4)): 3.6 ± 0.4 |
| O=c1cc(C2CC2)oc2cc(O)cc(O)c12 [Compound 4, 2-Cyclopropyl-5,7-dihydroxy-4H-chromen-4-one] | the increase was not significant | 140.7 ± 12.0% | 30% | 2.9 ± 0.1 | inhibition at 100 µM [5]: 24% |
| O=c1cc(C2CCC2)oc2cc(O)cc(O)c12 [Compound 5, 2-Cyclobutyl-5,7-dihydroxy-4H-chromen-4-one] | the increase was not significant | 184.6 ± 30.2% | – | > 2.5 | – |
| CCC(C)c1cc(=O)c2c(O)cc(O)cc2o1 (stereo not shown) [Compound 6, 5,7-Dihydroxy-2-(1-methylpropyl)-4H-chromen-4-one] | the increase was not significant | 109.9 ± 18.7% | 46% | > 2.5 | Butyrylcholinesterase inhibition, ranking in words ([4]; 100 µM compound): the most promising one; Mode of inhibition ([4]; BuChE, Lineweaver-Burk plot): Mixed inhibition; Ki ([4]; BuChE, Lineweaver-Burk plot, read-out: Kia (inhibition constant)): 44 ± 17 µM; Ki ([4]; BuChE, Lineweaver-Burk plot, read-out: Kib (inhibition constant)): 36 ± 8 µM; AChE inhibitory efficacy (percentage of inhibition) [5]: n.i . |
| O=c1cc(-c2ccc(N3CCCC3)cc2)oc2cc(O)cc(O)c12 [Compound 9, 5,7-Dihydroxy-4′-(pyrrolidin-1-yl)flavone] | able to produce statistically significant differences when compared to H2O2 controls | 163.6% ± 72.6 | 32% | – | inhibition at 100 µM [5]: 27% |
| CN(C)c1ccc(-c2cc(=O)c3c(O)cc(O)cc3o2)cc1 [Compound 10, 4′-Dimethylamino-5,7-dihydroxyflavone] | not significantly active | 191.5 ± 22.9% | – | 3.4 ± 0.2 | – |
| O=c1cc(-c2ccco2)oc2cc(O)cc(O)c12 [Compound 11, 2-(Furan-2-yl)-5,7-dihydroxy-4H-chromen-4-one] | contrarily | 129.7 ± 9.06% | – | > 2.5 | – |
| O=c1cc(-c2ccncc2)oc2cc(O)cc(O)c12 [Compound 12, 5,7-Dihydroxy-2-(pyridin-4-yl)-4H-chromen-4-one] | contrarily | 233.7 ± 15.7% | – | – | – |
| O=c1ccoc2cc(O)cc(O)c12 [Compound 13, 5,7-dihydroxychromen-4-one, reference compound] | no significant differences | 71.2 ± 48.1% | – | 2.4 ± 0.1 | – |
| O=c1cc(-c2ccccc2)oc2c([C@@H]3O[C@H](CO)[C@@H](O)[C@H](O)[C@H]3O)c(O)cc(O)c12 [Compound 16, 8-(β-D-Glucopyranosyl)-5,7-dihydroxyflavone] | absence of significant effects | 142.0 ± 38.5% | – | 0.8 ± 0.3 | BuChE inhibitory efficacy (percentage of inhibition) ([4]; 100 µM compound): n.i .; inhibition at 100 µM [5]: 20% |
| O=c1cc(-c2ccc(O)cc2)oc2c([C@@H]3O[C@H](CO)[C@@H](O)[C@H](O)[C@H]3O)c(O)cc(O)c12 [Compound 17, 8-(β-D-Glucopyranosyl)-5,7,4′-trihydroxyflavone] | able to rescue cells from oxidative damage caused by H2O2; also recorded: able to fully recover cell viability | – | – | – | MTT reduction (% control) ([2]; human, 50 μM): 85.0 ± 38.5%; logD ([3]; pH 7.4, Log D7.4 (partition coefficient at pH 7.4)): 0.1 ± 0.1 |
| O=c1ccoc2c([C@@H]3O[C@H](CO)[C@@H](O)[C@H](O)[C@H]3O)c(O)cc(O)c12 [Compound 22, 8-(β-D-Glucopyranosyl)-5,7-dihydroxy-4H-chromen-4-one] | no significant differences | 149.2 ± 21.6% | 19% | -2 ± 0.2 | AChE inhibitory efficacy (percentage of inhibition) [5]: n.i . |
